Experimental data taken from patent US11780830B2, “Triazolone derivatives or salts thereof and pharmaceutical compositions comprising the same” (YUHAN CORPORATION, priority 2018, dated 2023).
Structures can show the parent of a compound that is named as a salt.

Columns and labels:
Assay type in all cases: biochemical
[1] = molecular target: T1, recombinant human MAO-A (monoamine oxidase-A) (Homo sapiens, UniProt P21397); test: Activity on recombinant human MAO-A, method similar to the VAP-1 assay; conditions: substrate 0.5 mM tyramine; read-out: Inhibitory Activity (IC50, nM) MAO-A
T1 construct: purchased Sigma-Aldrich
T1 sequence (P21397 1-527): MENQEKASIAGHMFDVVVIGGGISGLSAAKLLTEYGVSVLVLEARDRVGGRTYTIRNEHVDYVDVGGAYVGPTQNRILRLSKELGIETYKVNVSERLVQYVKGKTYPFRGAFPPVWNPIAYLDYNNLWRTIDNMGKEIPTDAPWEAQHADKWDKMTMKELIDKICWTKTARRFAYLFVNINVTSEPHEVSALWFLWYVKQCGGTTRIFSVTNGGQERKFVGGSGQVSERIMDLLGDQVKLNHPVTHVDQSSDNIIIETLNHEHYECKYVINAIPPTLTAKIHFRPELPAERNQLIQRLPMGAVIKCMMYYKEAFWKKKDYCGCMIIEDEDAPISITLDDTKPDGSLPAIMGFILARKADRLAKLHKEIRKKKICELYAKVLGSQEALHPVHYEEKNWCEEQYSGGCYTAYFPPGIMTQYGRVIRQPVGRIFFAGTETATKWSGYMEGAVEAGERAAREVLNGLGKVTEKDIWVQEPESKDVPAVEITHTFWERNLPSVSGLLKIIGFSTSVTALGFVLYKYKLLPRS
Outline: (§1)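 First, serially diluted compounds were incubated with recombinant enzyme in 50 mM sodium phosphate, pH 7.4, for 30 min at 37° C. Next, Amplex Red (200 uM), HRP (1 U/mL) and tyramine (0.5 mM, MAO-A) or benzylamine (1 mM, MAO-B) were added. Then fluorescence was monitored over 1-2 h and IC50 fitted.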

recombinant human VAP-1 = molecular target: T2, recombinant human VAP-1 (Homo sapiens, UniProt Q16853); test: Activity on recombinant human VAP-1, HRP-coupled Amplex Red hydrogen peroxide assay; conditions: substrate 1 mM benzylamine; compound incubated with enzyme at 37° C. for 30 minutes; pH 7.4; read-out: Inhibitory Activity (IC50, nM) human VAP-1
T2 construct: purchased R&D systems
T2 sequence (Q16853 1-763): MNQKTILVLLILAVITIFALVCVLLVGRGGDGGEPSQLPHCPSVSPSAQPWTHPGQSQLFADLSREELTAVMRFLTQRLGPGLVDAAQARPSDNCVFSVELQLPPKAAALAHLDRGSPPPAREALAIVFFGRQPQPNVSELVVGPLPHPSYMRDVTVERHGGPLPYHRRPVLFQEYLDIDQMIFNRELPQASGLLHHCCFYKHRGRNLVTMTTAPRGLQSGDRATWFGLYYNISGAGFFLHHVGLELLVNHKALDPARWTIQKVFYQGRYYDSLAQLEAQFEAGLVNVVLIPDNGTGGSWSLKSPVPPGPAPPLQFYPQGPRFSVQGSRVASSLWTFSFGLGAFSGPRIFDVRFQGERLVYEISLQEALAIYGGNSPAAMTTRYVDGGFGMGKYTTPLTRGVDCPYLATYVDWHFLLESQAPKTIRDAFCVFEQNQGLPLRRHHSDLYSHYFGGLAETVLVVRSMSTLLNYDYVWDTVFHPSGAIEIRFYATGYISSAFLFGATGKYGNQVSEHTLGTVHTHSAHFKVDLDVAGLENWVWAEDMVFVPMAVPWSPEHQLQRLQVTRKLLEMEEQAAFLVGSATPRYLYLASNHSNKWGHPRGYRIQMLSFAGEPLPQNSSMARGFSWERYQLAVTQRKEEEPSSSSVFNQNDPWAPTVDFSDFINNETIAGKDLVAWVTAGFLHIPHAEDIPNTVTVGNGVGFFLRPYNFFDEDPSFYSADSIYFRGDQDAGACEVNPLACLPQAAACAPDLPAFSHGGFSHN
Outline: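 H2O2 generation from 1 mM benzylamine was coupled via 1 U/mL HRP to 200 uM Amplex Red; inhibitors, serially diluted 1:3 over 8 points with under 1% final DMSO, had been preincubated 30 min at 37 °C. IC50 from percentage drop in rate.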

[2] = molecular target: T3, recombinant human MAO-B (monoamine oxidase-B) (Homo sapiens, UniProt P27338); test: Activity on recombinant human MAO-B, method similar to the VAP-1 assay; conditions: substrate 1 mM benzylamine; read-out: Inhibitory Activity (IC50, nM) MAO-B
T3 construct: purchased Sigma-Aldrich
T3 sequence (P27338 1-520): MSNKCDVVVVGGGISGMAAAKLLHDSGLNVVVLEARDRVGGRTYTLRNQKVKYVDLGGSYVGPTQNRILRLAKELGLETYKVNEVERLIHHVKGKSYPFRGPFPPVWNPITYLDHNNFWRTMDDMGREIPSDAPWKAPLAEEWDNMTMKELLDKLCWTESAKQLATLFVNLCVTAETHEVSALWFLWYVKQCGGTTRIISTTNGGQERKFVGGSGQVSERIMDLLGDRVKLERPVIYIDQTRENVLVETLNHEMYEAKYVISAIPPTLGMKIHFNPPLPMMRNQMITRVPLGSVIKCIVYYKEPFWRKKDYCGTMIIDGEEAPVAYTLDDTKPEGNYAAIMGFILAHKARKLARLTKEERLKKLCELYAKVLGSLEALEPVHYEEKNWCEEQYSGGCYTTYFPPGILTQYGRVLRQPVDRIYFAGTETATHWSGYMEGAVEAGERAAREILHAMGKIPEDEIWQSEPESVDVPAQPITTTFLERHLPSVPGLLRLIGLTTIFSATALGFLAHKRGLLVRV
Outline: as §1

[3] = molecular target: T4, recombinant human DAO (diamine oxidase) (Homo sapiens, UniProt P19801); test: Activity on recombinant human DAO, method similar to the VAP-1 assay; conditions: substrate 1 mM putrescine; read-out: Inhibitory Activity (IC50, nM) DAO
T4 construct: purchased R&D systems
T4 sequence (P19801 20-751): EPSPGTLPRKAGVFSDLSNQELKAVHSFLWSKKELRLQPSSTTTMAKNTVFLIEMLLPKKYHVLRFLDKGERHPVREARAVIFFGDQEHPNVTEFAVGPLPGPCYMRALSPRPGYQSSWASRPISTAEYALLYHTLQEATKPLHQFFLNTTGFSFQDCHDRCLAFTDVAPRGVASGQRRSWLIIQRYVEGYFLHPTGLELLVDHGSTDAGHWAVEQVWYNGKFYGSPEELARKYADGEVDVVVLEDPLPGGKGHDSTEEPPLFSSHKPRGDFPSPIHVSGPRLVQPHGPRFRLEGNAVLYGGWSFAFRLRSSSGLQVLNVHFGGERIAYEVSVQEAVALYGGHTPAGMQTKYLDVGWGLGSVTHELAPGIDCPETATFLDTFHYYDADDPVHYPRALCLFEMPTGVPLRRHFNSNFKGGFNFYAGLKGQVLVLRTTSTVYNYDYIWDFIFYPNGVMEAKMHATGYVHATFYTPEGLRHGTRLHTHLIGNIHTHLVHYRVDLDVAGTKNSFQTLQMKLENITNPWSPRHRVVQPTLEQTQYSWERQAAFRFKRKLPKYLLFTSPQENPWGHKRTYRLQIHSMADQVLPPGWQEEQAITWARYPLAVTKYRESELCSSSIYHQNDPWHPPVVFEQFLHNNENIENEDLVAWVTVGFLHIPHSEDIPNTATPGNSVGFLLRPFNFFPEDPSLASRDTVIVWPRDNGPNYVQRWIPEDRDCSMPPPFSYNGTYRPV
Outline: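 Inhibition of recombinant human diamine oxidase (DAO, R&D systems) was assessed by the same approach as the VAP-1 assay, using 1 mM putrescine as substrate. Hydrogen peroxide formed was detected through an HRP-coupled Amplex Red reaction yielding fluorescent resorufin, read at 544 nm excitation and 590 nm emission. IC50 values came from four-parameter logistic fitting in GraphPad Prism.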

Row | Compound | IC50 [1] [nM] | IC50 (recombinant human VAP-1) [nM] | IC50 [2] [nM] | IC50 [3] [nM]
1 | NC/C(=C\F)Cn1ncn(Cc2ccc(-c3ccc(OCC(F)(F)F)nc3)s2)c1=O [Example 47, 2-[(2E)-2-(aminomethyl)-3-fluoroprop-2-en-1-yl]-4-(5-[6-(2,2,2-trifluoroethoxy)pyridin-3-yl]thiophen-2-ylmethyl)-2,4-dihydro-3H-1,2,4-triazol-3-one hydrochloride] | > 100000 | 4.7 | 980 | 530
2 | NC/C(=C\F)Cn1ncn(Cc2ccc(-c3ccc(C(F)(F)F)nc3)s2)c1=O [Example 49, 2-[(2E)-2-(aminomethyl)-3-fluoroprop-2-en-1-yl]-4-(5-[6-(trifluoromethyl)pyridin-3-yl]thiophen-2-ylmethyl)-2,4-dihydro-3H-1,2,4-triazol-3-one hydrochloride] | > 100000 | 0.5 | 360 | 98
3 | N#Cc1ccc(-c2ccc(Cn3cnn(C/C(=C/F)CN)c3=O)s2)cn1 [Example 50, 5-[5-(1-[(2E)-2-(aminomethyl)-3-fluoroprop-2-en-1-yl]-5-oxo-1,5-dihydro-4H-1,2,4-triazol-4-ylmethyl)thiophen-2-yl]pyridine-2-carbonitrile hydrochloride] | > 100000 | 0.5 | 3700 | 360
4 | NC/C(=C\F)Cn1ncn(Cc2ccc(-c3ccc(N4CCCCC4)nc3)s2)c1=O [Example 52, 2-[(2E)-2-(aminomethyl)-3-fluoroprop-2-en-1-yl]-4-(5-[6-(piperidin-1-yl)pyridin-3-yl]thiophen-2-ylmethyl)-2,4-dihydro-3H-1,2,4-triazol-3-one hydrochloride] | > 100000 | 0.8 | 640 | 170
5 | CN(C)c1ncc(-c2ccc(Cn3cnn(C/C(=C/F)CN)c3=O)s2)cn1 [Example 55, 2-[(2E)-2-(aminomethyl)-3-fluoroprop-2-en-1-yl]-4-(5-[2-(dimethylamino)pyrimidin-5-yl]thiophen-2-ylmethyl)-2,4-dihydro-3H-1,2,4-triazol-3-one hydrochloride] | > 100000 | 0.5 | 6400 | 180
6 | CSc1ncc(-c2ccc(Cn3cnn(C/C(=C/F)CN)c3=O)s2)cn1 [Example 56, 2-[(2E)-2-(aminomethyl)-3-fluoroprop-2-en-1-yl]-4-(5-[2-(methylsulfanyl)pyrimidin-5-yl]thiophen-2-ylmethyl)-2,4-dihydro-3H-1,2,4-triazol-3-one hydrochloride] | > 100000 | 0.4 | 4200 | 40

More lines, now with the values ahead:

Row | IC50 [1] [nM] | IC50 (recombinant human VAP-1) [nM] | IC50 [2] [nM] | IC50 [3] [nM] | Compound
7 | > 100000 | 0.7 | 5100 | 570 | CN(C)c1ccc(-c2ccc(Cn3cnn(C/C(=C/F)CN)c3=O)s2)cn1 [Example 42, 2-[(2E)-2-(aminomethyl)-3-fluoroprop-2-en-1-yl]-4-(5-[6-(dimethylamino)pyridin-3-yl]thiophen-2-ylmethyl)-2,4-dihydro-3H-1,2,4-triazol-3-one hydrochloride]
8 | > 100000 | 4.1 | > 10000 | 110 | CC(C)(C)NS(=O)(=O)c1cncc(-c2ccc(Cn3cnn(C/C(=C/F)CN)c3=O)s2)c1 [Example 43, 5-[5-(1-[(2E)-2-(aminomethyl)-3-fluoroprop-2-en-1-yl]-5-oxo-1,5-dihydro-4H-1,2,4-triazol-4-ylmethyl)thiophen-2-yl]-N-tert-butylpyridin-3-sulfonamide hydrochloride]
9 | > 100000 | 1.1 | 400 | 330 | COc1ccc(-c2ccc(Cn3cnn(C/C(=C/F)CN)c3=O)s2)cn1 [Example 45, 2-[(2E)-2-(aminomethyl)-3-fluoroprop-2-en-1-yl]-4-[5-(6-methoxypyridin-3-yl)thiophen-2-yl]methyl-2,4-dihydro-3H-1,2,4-triazol-3-one hydrochloride]
10 | > 10000 | 1.3 | 740 | 380 | CSc1ccc(-c2ccc(Cn3cnn(C/C(=C/F)CN)c3=O)s2)cn1 [Example 46, 2-[(2E)-2-(aminomethyl)-3-fluoroprop-2-en-1-yl]-4-(5-[6-(methylsulfanyl)pyridin-3-yl]thiophen-2-ylmethyl)-2,4-dihydro-3H-1,2,4-triazol-3-one hydrochloride]
11 | 6600 | 2.2 | 1600 | 83 | NC/C(=C\F)Cn1ncn(Cc2ccc(-c3cnc(N4CCOCC4)nc3)s2)c1=O [Example 57, 2-[(2E)-2-(aminomethyl)-3-fluoroprop-2-en-1-yl]-4-(5-[2-(morpholin-4-yl)pyrimidin-5-yl]thiophen-2-ylmethyl)-2,4-dihydro-3H-1,2,4-triazol-3-one hydrochloride]
